This test has as its target T1, β-glucocerebrosidase (Homo sapiens, UniProt P04062, L483P).
T1 construct: host or cells: human Gaucher disease patient fibroblasts GM08760A
T1 sequence (P04062 40-536 L483P): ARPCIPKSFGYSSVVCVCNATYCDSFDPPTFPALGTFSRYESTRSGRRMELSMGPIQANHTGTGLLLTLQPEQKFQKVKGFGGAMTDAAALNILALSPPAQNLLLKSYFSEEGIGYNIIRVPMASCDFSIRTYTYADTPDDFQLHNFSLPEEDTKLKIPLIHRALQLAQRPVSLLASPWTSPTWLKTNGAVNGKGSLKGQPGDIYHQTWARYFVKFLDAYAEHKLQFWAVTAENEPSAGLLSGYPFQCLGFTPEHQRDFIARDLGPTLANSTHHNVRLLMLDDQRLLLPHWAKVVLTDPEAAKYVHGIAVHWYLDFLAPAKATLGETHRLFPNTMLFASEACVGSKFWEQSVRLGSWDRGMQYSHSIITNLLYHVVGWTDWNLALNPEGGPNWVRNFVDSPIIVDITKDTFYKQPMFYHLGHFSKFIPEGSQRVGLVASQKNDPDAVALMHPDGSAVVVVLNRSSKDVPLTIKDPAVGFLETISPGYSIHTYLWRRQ
Kind of test: Enhancement of β-glucocerebrosidase activity measured in Gaucher disease fibroblasts (4-MU-β-D-glucopyranoside substrate, intact cells). It counts as cell-based. The following applies: GBA fibroblasts bearing L444P (GM08760A, homozygous p.L444P); compound at concentrations between 6 and 50 μM; 4 days incubation. The gist of the method: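 Patient fibroblasts homozygous for p.L444P (GM08760A), grown in DMEM/10% FBS and exposed to compound for 4 days. Intact cells then given 4-MU-β-D-glucopyranoside in 0.1 M acetate pH 4, 1 h, 37 °C; stopped at pH 10.7, 4-MU fluorescence ex 340/em 460. Value is fold increase over untreated cells; binned at 6–50 μM.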

In the case of `CN(C(=O)c1cc(Nc2ccccc2O)cc(N)n1)c1ccccc1` [Example 128, 6-Amino-4-((2-hydroxyphenyl)amino)-N-methyl-N-phenylpicolinamide], the “Range: increase in enzyme activity in comparison with non-treated cells (Enzyme activity assay for compounds of Examples 33-141)” value was “C (Increase in comparison with non-treated of 1.2-1.7 fold is shown as C)”.
For `Nc1cc(Nc2ccccc2O)nc(C(=O)NC2Cc3ccccc3C2)c1` [Example 129, 4-Amino-N-(2,3-dihydro-1H-inden-2-yl)-6-((2-hydroxyphenyl)amino)picolinamide], the “Range: increase in enzyme activity in comparison with non-treated cells (Enzyme activity assay for compounds of Examples 33-141)” value is “C (Increase in comparison with non-treated of 1.2-1.7 fold is shown as C)”.
In the case of `Nc1nc(Nc2ccccc2O)cc(C(=O)N2CCN(c3ccccc3)CC2)n1` [Example 130, (2-Amino-6-((2-hydroxyphenyl)amino)pyrimidin-4-yl)(4-phenylpiperazin-1-yl)methanone], the “Range: increase in enzyme activity in comparison with non-treated cells (Enzyme activity assay for compounds of Examples 33-141)” value is reported as “C (Increase in comparison with non-treated of 1.2-1.7 fold is shown as C)”.
On to `CN(C(=O)c1cc(N)cc(Nc2ccccc2O)n1)C1Cc2ccccc2C1.Cl` [Example 131, 4-Amino-N-(2,3-dihydro-1H-inden-2-yl)-6-((2-hydroxyphenyl)amino)-N-methyl-picolinamide hydrochloride], for which the “Range: increase in enzyme activity in comparison with non-treated cells (Enzyme activity assay for compounds of Examples 33-141)” value was “C (Increase in comparison with non-treated of 1.2-1.7 fold is shown as C)”.
For the compound `CN(C(=O)c1cc(N)cc(Nc2ccccc2F)n1)C1Cc2ccccc2C1.Cl` [Example 132, 4-Amino-N-(2,3-dihydro-1H-inden-2-yl)-6-((2-fluorophenyl)amino)-N-methylpicolinamide hydrochloride], the “Range: increase in enzyme activity in comparison with non-treated cells (Enzyme activity assay for compounds of Examples 33-141)” value is “C (Increase in comparison with non-treated of 1.2-1.7 fold is shown as C)”.
Next, `COc1ccccc1Nc1cc(N)cc(C(=O)NC2Cc3ccccc3C2)n1.Cl` [Example 133, 4-amino-N-(2,3-dihydro-1H-inden-2-yl)-6-((2-methoxyphenyl)amino)picolinamide hydrochloride]: “C (Increase in comparison with non-treated of 1.2-1.7 fold is shown as C)”; `Cl.Nc1cc(Nc2cccc(F)c2)nc(C(=O)Nc2ccccc2)c1` [Example 134, 4-Amino-6-((3-fluorophenyl)amino)-N-phenylpicolinamide hydrochloride]: “A (Increase in comparison with non-treated of >2.0 fold is shown as A)”; `COc1cccc(Nc2cc(N)cc(C(=O)Nc3ccccc3)n2)c1.Cl` [Example 135, 4-Amino-6-((3-methoxyphenyl)amino)-N-phenylpicolinamide hydrochloride]: “A (Increase in comparison with non-treated of >2.0 fold is shown as A)”.
`Cc1cccc(NC(=O)c2cc(N)cc(Nc3cccc(F)c3)n2)c1.Cl` [Example 136, 4-Amino-6-((3-fluorophenyl)amino)-N-(m-tolyl)picolinamide hydrochloride]: the “Range: increase in enzyme activity in comparison with non-treated cells (Enzyme activity assay for compounds of Examples 33-141)” value is “A (Increase in comparison with non-treated of >2.0 fold is shown as A)”.
Turning to `Cl.Nc1cc(Nc2cccc(F)c2)nc(C(=O)NC2Cc3ccccc3C2)c1` [Example 138, 4-Amino-N-(2,3-dihydro-1H-inden-2-yl)-6-((3-fluorophenyl)amino)picolinamide hydrochloride], the “Range: increase in enzyme activity in comparison with non-treated cells (Enzyme activity assay for compounds of Examples 33-141)” value was “A (Increase in comparison with non-treated of >2.0 fold is shown as A)”.
For the compound `Cl.Nc1cc(Nc2ccccc2F)nc(C(=O)NC2Cc3ccccc3C2)c1` [Example 139, 4-Amino-N-(2,3-dihydro-1H-inden-2-yl)-6-((2-fluorophenyl)amino)picolinamide hydrochloride], the “Range: increase in enzyme activity in comparison with non-treated cells (Enzyme activity assay for compounds of Examples 33-141)” value is given as “C (Increase in comparison with non-treated of 1.2-1.7 fold is shown as C)”.
On to `Cl.Nc1cc(Nc2cc(F)cc(F)c2)nc(C(=O)NC2Cc3ccccc3C2)c1` [Example 140, 4-Amino-6-((3,5-difluorophenyl)amino)-N-(2,3-dihydro-1H-inden-2-yl)picolinamide hydrochloride], for which the “Range: increase in enzyme activity in comparison with non-treated cells (Enzyme activity assay for compounds of Examples 33-141)” value is “A (Increase in comparison with non-treated of >2.0 fold is shown as A)”.
As to `COc1cccc(Nc2cc(N)nc(C(=O)NC3Cc4ccccc4C3)c2)c1.Cl` [Example 141, 6-Amino-N-(2,3-dihydro-1H-inden-2-yl)-4-((3-methoxyphenyl)amino)picolinamide hydrochloride], the “Range: increase in enzyme activity in comparison with non-treated cells (Enzyme activity assay for compounds of Examples 33-141)” value is given as “C (Increase in comparison with non-treated of 1.2-1.7 fold is shown as C)”.

(Values after patent publication US12661342B2, “Heteroaryl compounds and therapeutic uses thereof in conditions associated with the alteration of the activity of beta-glucocerebrosidase” (GT GAIN THERAPEUTICS SA, priority 2019, dated 2026).)
